According to patent US10906915B2, “Substituted pyrazoloazepin-4-ones and their use as phosphodiesterase inhibitors” (LEO Pharma A/S, priority 2016, dated 2021):

What follows are molecules tested against human PDE4D catalytic domain (UniProt no. Q08499) (Homo sapiens (Human), UniProt Q08499) (assay: PDE4 assay (TR-FRET, FAM-cAMP cleavage)). Conditions: human PDE4D catalytic domain; molar concentration giving 50% inhibition of substrate cleavage; read-out: PDE4 IC50 range.
Sequence of human PDE4D catalytic domain (Q08499 380-740 limits assumed): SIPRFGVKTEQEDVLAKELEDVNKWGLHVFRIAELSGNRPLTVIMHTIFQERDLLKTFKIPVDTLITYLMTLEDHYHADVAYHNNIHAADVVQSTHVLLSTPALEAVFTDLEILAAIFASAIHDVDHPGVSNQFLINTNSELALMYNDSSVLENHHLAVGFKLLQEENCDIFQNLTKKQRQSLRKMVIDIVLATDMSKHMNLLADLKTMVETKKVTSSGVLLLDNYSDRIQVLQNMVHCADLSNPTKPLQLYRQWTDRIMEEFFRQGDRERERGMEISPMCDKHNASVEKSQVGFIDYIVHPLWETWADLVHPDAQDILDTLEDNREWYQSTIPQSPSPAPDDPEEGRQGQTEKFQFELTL
Type: biochemical
In short: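 PDE4D catalytic domain ([…]) was incubated with unlabelled cAMP plus FAM-cAMP and titrated compound, stopped with binding buffer of metal-ion nanoparticles and Tb donor. AMP generation read by TR-FRET; IC50 as 50% inhibition of cleavage versus controls, reported as nM ranges.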
With `CCc1nn(C[C@@H](C)COC(=O)c2ccc(C(=O)N3CCN(C(C)=O)CC3)cc2)c2c1C(=O)NCC1(CCOCC1)C2` [Example 262, [(2R)-3-(3-ethyl-4-oxo-spiro[6,8-dihydro-5H-pyrazolo[4,3-c]azepine-7,4′-tetrahydropyran]-1-yl)-2-methyl-propyl] 4-(4-acetylpiperazine-1-carbonyl)benzoate] the IC50 was < 100 nM.

Same assay, conditions: read-out: PDE4 IC50 range
With `CCc1nn(C[C@@H](C)COC(=O)c2cccc(C(N)=O)c2)c2c1C(=O)NCC1(CCOCC1)C2` [Example 263, [(2R)-3-(3-ethyl-4-oxo-spiro[6,8-dihydro-5H-pyrazolo[4,3-c]azepine-7,4′-tetrahydropyran]-1-yl)-2-methyl-propyl] 3-carbamoylbenzoate] the IC50 was < 100 nM.
With `CCc1nn(C[C@@H](C)COC(=O)c2cccc(C(=O)NC)c2)c2c1C(=O)NCC1(CCOCC1)C2` [Example 264, [(2R)-3-(3-ethyl-4-oxo-spiro[6,8-dihydro-5H-pyrazolo[4,3-c]azepine-7,4′-tetrahydropyran]-1-yl)-2-methyl-propyl] 3-(methylcarbamoyl)benzoate] the IC50 was < 100 nM.
In the case of `CCNC(=O)c1cccc(C(=O)OC[C@H](C)Cn2nc(CC)c3c2CC2(CCOCC2)CNC3=O)c1` [Example 265, [(2R)-3-(3-ethyl-4-oxo-spiro[6,8-dihydro-5H-pyrazolo[4,3-c]azepine-7,4′-tetrahydropyran]-1-yl)-2-methyl-propyl] 3-(ethylcarbamoyl)benzoate], the IC50 is reported as < 100 nM.
`CCc1nn(C[C@@H](C)COC(=O)c2cccc(C(=O)N(C)C)c2)c2c1C(=O)NCC1(CCOCC1)C2` [Example 266, [(2R)-3-(3-ethyl-4-oxo-spiro[6,8-dihydro-5H-pyrazolo[4,3-c]azepine-7,4′-tetrahydropyran]-1-yl)-2-methyl-propyl] 3-(dimethylcarbamoyl)benzoate] was tested, and the IC50 was < 100 nM.
With `CCc1nn(C[C@@H](C)COC(=O)c2cccc(C(=O)NC(C)C)c2)c2c1C(=O)NCC1(CCOCC1)C2` [Example 267, [(2R)-3-(3-ethyl-4-oxo-spiro[6,8-dihydro-5H-pyrazolo[4,3-c]azepine-7,4′-tetrahydropyran]-1-yl)-2-methyl-propyl] 3-(isopropylcarbamoyl)benzoate] the IC50 was < 100 nM.
In the case of `CCc1nn(C[C@@H](C)COC(=O)c2cccc(C(=O)N3CCCC3)c2)c2c1C(=O)NCC1(CCOCC1)C2` [Example 268, [(2R)-3-(3-ethyl-4-oxo-spiro[6,8-dihydro-5H-pyrazolo[4,3-c]azepine-7,4′-tetrahydropyran]-1-yl)-2-methyl-propyl] 3-(pyrrolidine-1-carbonyl)benzoate], the IC50 is reported as < 100 nM.
With `CCc1nn(C[C@@H](C)COC(=O)c2cccc(C(=O)N3CCCCC3)c2)c2c1C(=O)NCC1(CCOCC1)C2` [Example 269, [(2R)-3-(3-ethyl-4-oxo-spiro[6,8-dihydro-5H-pyrazolo[4,3-c]azepine-7,4′-tetrahydropyran]-1-yl)-2-methyl-propyl] 3-(piperidine-1-carbonyl)benzoate] the IC50 was < 100 nM.
For `CCc1nn(C[C@@H](C)COC(=O)c2cccc(C(=O)N3CCNCC3)c2)c2c1C(=O)NCC1(CCOCC1)C2` [Example 270, [(2R)-3-(3-ethyl-4-oxo-spiro[6,8-dihydro-5H-pyrazolo[4,3-c]azepine-7,4′-tetrahydropyran]-1-yl)-2-methyl-propyl] 3-(piperazine-1-carbonyl)benzoate], the IC50 was < 100 nM.
`CCc1nn(C[C@@H](C)COC(=O)c2cccc(C(=O)N3CCOCC3)c2)c2c1C(=O)NCC1(CCOCC1)C2` [Example 271, [(2R)-3-(3-ethyl-4-oxo-spiro[6,8-dihydro-5H-pyrazolo[4,3-c]azepine-7,4′-tetrahydropyran]-1-yl)-2-methyl-propyl] 3-(morpholine-4-carbonyl)benzoate] was tested, and the IC50 was < 100 nM.
For `CCc1nn(C[C@@H](C)COC(=O)c2cccc(C(=O)N3CCN(C)CC3)c2)c2c1C(=O)NCC1(CCOCC1)C2` [Example 272, [(2R)-3-(3-ethyl-4-oxo-spiro[6,8-dihydro-5H-pyrazolo[4,3-c]azepine-7,4′-tetrahydropyran]-1-yl)-2-methyl-propyl] 3-(4-methylpiperazine-1-carbonyl)benzoate], the IC50 was < 100 nM.
For `CCc1nn(C[C@@H](C)COC(=O)c2cccc(C(=O)N3CCN(C(C)=O)CC3)c2)c2c1C(=O)NCC1(CCOCC1)C2` [Example 273, [(2R)-3-(3-ethyl-4-oxo-spiro[6,8-dihydro-5H-pyrazolo[4,3-c]azepine-7,4′-tetrahydropyran]-l-yl)-2-methyl-propyl] 3-(4-acetylpiperazine-1-carbonyl)benzoate], the IC50 was < 100 nM.
In the case of `CCc1nn(C[C@H](C)COC(=O)c2ccccc2)c2c1C(=O)NCC1(CCOCC1)C2` [Example 274, [(2S)-3-(3-ethyl-4-oxo-spiro[6,8-dihydro-5H-pyrazolo[4,3-c]azepine-7,4′-tetrahydropyran]-1-yl)-2-methyl-propyl] benzoate], the IC50 is reported as < 100 nM.
For `CCc1nn(C[C@H](C)COC(=O)c2ccc(C)cc2)c2c1C(=O)NCC1(CCOCC1)C2` [Example 275, [(2S)-3-(3-ethyl-4-oxo-spiro[6,8-dihydro-5H-pyrazolo[4,3-c]azepine-7,4′-tetrahydropyran]-1-yl)-2-methyl-propyl] 4-methylbenzoate], the IC50 was < 100 nM.
With `CCc1nn(C[C@H](C)COC(=O)c2cccc(F)c2)c2c1C(=O)NCC1(CCOCC1)C2` [Example 276, [(2S)-3-(3-ethyl-4-oxo-spiro[6,8-dihydro-5H-pyrazolo[4,3-c]azepine-7,4′-tetrahydropyran]-1-yl)-2-methyl-propyl] 3-fluorobenzoate] the IC50 was < 100 nM.
In the case of `CCc1nn(C[C@H](C)COC(=O)c2ccc(F)cc2)c2c1C(=O)NCC1(CCOCC1)C2` [Example 277, [(2S)-3-(3-ethyl-4-oxo-spiro[6,8-dihydro-5H-pyrazolo[4,3-c]azepine-7,4′-tetrahydropyran]-1-yl)-2-methyl-propyl] 4-fluorobenzoate], the IC50 is reported as < 100 nM.
For `CCc1nn(C[C@H](C)COC(=O)c2cccc(OC)c2)c2c1C(=O)NCC1(CCOCC1)C2` [Example 278, [(2S)-3-(3-ethyl-4-oxo-spiro[6,8-dihydro-5H-pyrazolo[4,3-c]azepine-7,4′-tetrahydropyran]-1-yl)-2-methyl-propyl] 3-methoxybenzoate], the IC50 was < 100 nM.
`CCc1nn(C[C@H](C)COC(=O)c2ccc(Cl)cc2)c2c1C(=O)NCC1(CCOCC1)C2` [Example 279, [(2S)-3-(3-ethyl-4-oxo-spiro[6,8-dihydro-5H-pyrazolo[4,3-c]azepine-7,4′-tetrahydropyran]-1-yl)-2-methyl-propyl] 4-chlorobenzoate] was tested, and the IC50 was < 100 nM.
`CCc1nn(CC(C)(C)COC(=O)C2CCCC2)c2c1C(=O)NCC1(CCOCC1)C2` [Example 281, [3-(3-ethyl-4-oxo-spiro[6,8-dihydro-5H-pyrazolo[4,3-c]azepine-7,4′-tetrahydropyran]-1-yl)-2,2-dimethyl-propyl] cyclopentanecarboxylate] was tested, and the IC50 was < 100 nM.
`CCc1nn(CC(C)(C)COC(=O)C(CC)CC)c2c1C(=O)NCC1(CCOCC1)C2` [Example 282, [3-(3-ethyl-4-oxo-spiro[6,8-dihydro-5H-pyrazolo[4,3-c]azepine-7,4′-tetrahydropyran]-1-yl)-2,2-dimethyl-propyl] 2-ethylbutanoate] was tested, and the IC50 was < 100 nM.
`CCc1nn(CC(C)(C)COC(=O)c2ccc(C)cc2)c2c1C(=O)NCC1(CCOCC1)C2` [Example 283, [3-(3-ethyl-4-oxo-spiro[6,8-dihydro-5H-pyrazolo[4,3-c]azepine-7,4′-tetrahydropyran]-1-yl)-2,2-dimethyl-propyl] 4-methylbenzoate] was tested, and the IC50 was < 100 nM.
`CCc1nn(CC(C)(C)COC(=O)c2cccc(F)c2)c2c1C(=O)NCC1(CCOCC1)C2` [Example 284, [3-(3-ethyl-4-oxo-spiro[6,8-dihydro-5H-pyrazolo[4,3-c]azepine-7,4′-tetrahydropyran]-1-yl)-2,2-dimethyl-propyl] 3-fluorobenzoate] was tested, and the IC50 was < 100 nM.
In the case of `CCc1nn(CC(C)(C)COC(=O)c2ccc(F)cc2)c2c1C(=O)NCC1(CCOCC1)C2` [Example 285, [3-(3-ethyl-4-oxo-spiro[6,8-dihydro-5H-pyrazolo[4,3-c]azepine-7,4′-tetrahydropyran]-1-yl)-2,2-dimethyl-propyl] 4-fluorobenzoate], the IC50 is reported as < 100 nM.
With `CCc1nn(CC(C)(C)COC(=O)c2ccccc2F)c2c1C(=O)NCC1(CCOCC1)C2` [Example 286, [3-(3-ethyl-4-oxo-spiro[6,8-dihydro-5H-pyrazolo[4,3-c]azepine-7,4′-tetrahydropyran]-1-yl)-2,2-dimethyl-propyl] 2-fluorobenzoate] the IC50 was < 100 nM.
In the case of `CCc1nn(CC(C)(C)COC(=O)c2cccc(C#N)c2)c2c1C(=O)NCC1(CCOCC1)C2` [Example 287, [3-(3-ethyl-4-oxo-spiro[6,8-dihydro-5H-pyrazolo[4,3-c]azepine-7,4′-tetrahydropyran]-1-yl)-2,2-dimethyl-propyl] 3-cyanobenzoate], the IC50 is reported as < 100 nM.
`CCc1nn(CC(C)(C)COC(=O)c2ccc(C#N)cc2)c2c1C(=O)NCC1(CCOCC1)C2` [Example 288, [3-(3-ethyl-4-oxo-spiro[6,8-dihydro-5H-pyrazolo[4,3-c]azepine-7,4′-tetrahydropyran]-1-yl)-2,2-dimethyl-propyl] 4-cyanobenzoate] was tested, and the IC50 was < 100 nM.
With `CCc1nn(CC(C)(C)COC(=O)c2cccc(OC)c2)c2c1C(=O)NCC1(CCOCC1)C2` [Example 289, [3-(3-ethyl-4-oxo-spiro[6,8-dihydro-5H-pyrazolo[4,3-c]azepine-7,4′-tetrahydropyran]-1-yl)-2,2-dimethyl-propyl] 3-methoxybenzoate] the IC50 was < 100 nM.
In the case of `CCc1nn(CC(C)(C)COC(=O)c2ccc(Cl)cc2)c2c1C(=O)NCC1(CCOCC1)C2` [Example 290, [3-(3-ethyl-4-oxo-spiro[6,8-dihydro-5H-pyrazolo[4,3-c]azepine-7,4′-tetrahydropyran]-1-yl)-2,2-dimethyl-propyl] 4-chlorobenzoate], the IC50 is reported as < 100 nM.
